From publication PMC3079261 (Tetrahedron letters, 2011)

Target: FGFR1 kinase domain (Homo sapiens, UniProt P11362)
Experiment: ALPHAScreen assay of inhibition of phosphorylation by FGFR1 kinase
Format: biochemical

Chain of FGFR1 kinase domain (P11362 478-767 limits assumed): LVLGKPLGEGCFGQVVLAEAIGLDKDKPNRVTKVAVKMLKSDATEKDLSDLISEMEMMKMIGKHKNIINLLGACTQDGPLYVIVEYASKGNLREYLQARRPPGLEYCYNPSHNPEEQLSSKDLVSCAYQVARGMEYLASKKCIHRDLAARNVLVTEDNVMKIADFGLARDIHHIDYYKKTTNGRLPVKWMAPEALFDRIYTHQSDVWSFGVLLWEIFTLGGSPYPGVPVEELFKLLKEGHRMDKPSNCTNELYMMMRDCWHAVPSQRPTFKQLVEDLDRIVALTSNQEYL

IC50 [µM]	SMILES
28	COc1cc(OC)cc(-c2ccc3c(c2)sc2nc(-c4ccc(OCC(=O)O)c(OC)c4)[nH]c(=O)c23)c1 [compound 6, 2-(4-(7-(3,5-dimethoxyphenyl)-4-oxo-3,4-dihydrobenzo[4,5]thieno[2,3-d]pyrimidin-2-yl)-2-methoxyphenoxy)acetic acid]
21	COc1cc(OC)cc(-c2ccc3c(c2)sc2nc(CCC(=O)O)[nH]c(=O)c23)c1 [compound 7, 3-(7-(3,5-dimethoxyphenyl)-4-oxo-3,4-dihydrobenzo[4,5]thieno[2,3-d]pyrimidin-2-yl)propanoic acid]
